Patent publication EP2508526A1, “Spiroalkene carboxamide derivatives and their use as chemokine receptor modulators” (Ares Trading SA, priority 2011, dated 2012)
Where a name gives a salt, the structure may show the parent alone.

Each compound was assayed against T1, hCCR2b (Homo sapiens, UniProt P41597) (assay: CCR2 binding assay ([125I]MCP-1, SPA, CHO cell membranes)). Conditions: membranes from CHO cells expressing hCCR2b, 50 pM [125I]MCP-1; read-out: Binding hCCR2 (Ki).
T1 sequence (P41597 1-360 isoform P41597-2): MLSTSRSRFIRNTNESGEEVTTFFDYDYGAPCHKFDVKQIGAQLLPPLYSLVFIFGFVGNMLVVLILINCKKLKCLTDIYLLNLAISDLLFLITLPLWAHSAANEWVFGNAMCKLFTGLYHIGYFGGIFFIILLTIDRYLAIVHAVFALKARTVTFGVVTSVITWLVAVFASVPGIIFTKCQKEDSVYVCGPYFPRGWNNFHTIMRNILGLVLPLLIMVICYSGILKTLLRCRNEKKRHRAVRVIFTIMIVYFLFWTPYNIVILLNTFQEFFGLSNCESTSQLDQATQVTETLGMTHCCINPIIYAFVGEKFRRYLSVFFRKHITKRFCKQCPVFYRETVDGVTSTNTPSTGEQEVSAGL
Parameters: expressed in transfected cells; host or cells: CHO cells (membrane preparation)
Summary of the method: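 CHO membranes expressing hCCR2b (1–5 µg/well) with 50 pM [125I]MCP-1 and WGA SPA beads in 50 mM HEPES pH 7.4, 5 mM MgCl2, 1 mM CaCl2, 0.1% BSA, 1% DMSO; 90 min RT with agitation. Bound counts on scintillation counter; nonspecific defined by 1000-fold excess unlabeled compound.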

Row | Compound | Ki
1 | CCN1CCC2(CC1)OC(=O)C(C)=C2C(=O)N1CCCN(c2cccc(F)c2)CC1 [Compound 52, 8-ethyl-4-{[4-(3-fluorophenyl)-1,4-diazepan-1-yl]carbonyl}-3-methyl-1-oxa-8-azaspiro[4.5]dec-3-en-2-one] | 500 to 2000 nM
2 | CCN1CCC2(CC1)OC(=O)C(C)=C2C(=O)N1CCN(c2ccc(C(F)(F)F)cc2)CC1 [Compound 113, 8-ethyl-3-methyl-4-({4-[4-(trifluoromethyl)phenyl]piperazin-1-yl}carbonyl)-1-oxa-8-azaspiro[4.5]dec-3-en-2-one] | 500 to 2000 nM
3 | CCN1CCC2(CC1)OC(=O)C(C)=C2C(=O)N1CCN(c2ccc(OC(F)(F)F)cc2)CC1 [Compound 93, 8-ethyl-3-methyl-4-({4-[4-(trifluoromethoxy)phenyl]piperazin-1-yl}carbonyl)-1-oxa-8-azaspiro[4.5]1dec-3-en-2-one] | 100 to 500 nM
4 | CC1=C(C(=O)N2CCc3ccc(C(F)(F)F)cc3C2)C2(CCNCC2)OC1=O [Compound 76, 3-methyl-4-{[7-(trifluoromethyl)-3,4-dihydroisoquinolin-2(1H)-yl]carbonyl}-1-oxa-8-azaspiro[4.5]dec-3-en-2-one, hydrocloride salt] | < 50 nM
5 | COc1ccc(CCN2CCC3(CC2)OC(=O)C(C)=C3C(=O)N2CCN(c3cccc(C(F)(F)F)c3)CC2)cc1 [Example 6, 8-[2-(4-methoxyphenyl)ethyl]-3-methyl-4-({4-[3-(trifluoromethyl)phenyl]piperazin-1-yl]carbonyl)-1-oxa-8-azaspiro[4.5]dec-3-en-2-one, dihydrochloride salt] | < 50 nM
6 | CC1=C(C(=O)N2CCc3ccc(C(F)(F)F)cc3C2)C2(CCN(C3CCCC3)CC2)OC1=O [Compound 30, 8-cyclopentyl-3-methyl-4-{[7-(trifluoromethyl)-3,4-dihydroisoquinolin-2(1H)-yl]carbonyl}-1-oxa-8-azaspiro[4.5]dec-3-en-2-one] | < 50 nM
7 | CCN1CCC2(CC1)OC(=O)C(C)=C2C(=O)N1CCN(c2cc(Cl)cc(Cl)c2)CC1 [Compound 114, 4-{[4-(3,5-dichlorophenyl)piperazin-1-yl]carbonyl}-8-ethyl-3-methyl-1-oxa-8-azaspiro[4.5]dec-3-en-2-one] | 100 to 500 nM
8 | CCN1CCC2(CC1)OC(=O)C(C)=C2C(=O)N1CCN(c2cc(C(F)(F)F)cc(C(F)(F)F)c2)CC1 [Compound 88, 4-({4-[3,5-bis(trifluoromethyl)phenyl]piperazin-1-yl}carbonyl)-8-ethyl-3-methyl-1-oxa-8-azaspiro[4.5]dec-3-en-2-one] | < 50 nM
9 | CC1=C(C(=O)N2CCN(c3cccc(C(F)(F)F)c3)CC2)C2(CCN(CCc3ccncc3)CC2)OC1=O [Compound 12, 3-methyl-8-(2-pyridin-4-ylethyl)-4-({4-[3-(trifluoromethyl)phenyl]piperazin-1-yl}carbonyl)-1-oxa-8-azaspiro[4.5]dec-3-en-2-one] | 50 to 100 nM
10 | CCN1CCC2(CC1)OC(=O)C(C)=C2C(=O)N1CCN(c2cc(C(F)(F)F)ccc2C)CC1 [Compound 96, 8-ethyl-3-methyl-4-({4-[2-methyl-5-(trifluoromethyl)phenyl]piperazin-1-yl}carbonyl)-1-oxa-8-azaspiro[4.5]dec-3-en-2-one] | 500 to 2000 nM
11 | CC1=C(C(=O)N2CCc3ccc(C(F)(F)F)cc3C2)C2(CCN(CCF)CC2)OC1=O [Compound 17, 8-(2-fluoroethyl)-3-methyl-4-{[7-(trifluoromethyl)-3,4-dihydroisoquinolin-2(1H)-yl]carbonyl}-1-oxa-8-azaspiro[4.5]dec-3-en-2-one] | < 50 nM
12 | CC1=C(C(=O)NCc2ccc(C(F)(F)F)cc2)C2(CCN(C(C)C)CC2)OC1=O [Compound 64, 8-isopropyl-3-methyl-2-oxo-N-[4-(trifluoromethyl)benzyl]-1-oxa-8-azaspiro[4.5]dec-3-ene-4-carboxamide] | 500 to 2000 nM
13 | CC1=C(C(=O)N2CCN(c3cccc(Cl)c3)CC2)C2(CCN(C)CC2)OC1=O [Compound 112, 4-{[4-(3-chlorophenyl)piperazin-1-yl]carbonyl}-3,8-dimethyl-1-oxa-8-azaspiro[4.5]dec-3-en-2-one] | 500 to 2000 nM
14 | CCN1CCC2(CC1)OC(=O)C(C)=C2C(=O)N1CCN(c2ccc(Cl)c(C(F)(F)F)c2)CC1 [Compound 82, 4-({4-[4-chloro-3-(trifluoromethyl)phenyl]piperazin-1-yl}carbonyl)-8-ethyl-3-methyl-1-oxa-8-azaspiro[4.5]dec-3-en-2-one] | < 50 nM
15 | CCN1CCC2(CC1)OC(=O)C(C)=C2C(=O)NCC(=O)Nc1cccc(C(F)(F)F)c1 [Compound 56, 8-ethyl-3-methyl-2-oxo-N-(2-oxo-2-{[3-(trifluoromethyl)phenyl]amino}ethyl)-1-oxa-8-azaspiro[4.5]dec-3-ene-4-carboxamide] | < 50 nM
16 | CC1=C(C(=O)N2CCN(c3cccc(C(F)(F)F)c3)CC2)C2(CCN(CC(C)C)CC2)OC1=O [Compound 103, 8-isobutyl-3-methyl-4-({4-[3-(trifluoromethyl)phenyl]piperazin-1-yl}carbonyl)-1-oxa-8-azaspiro[4.5]dec-3-en-2-one] | < 50 nM

More lines, now with the values ahead:

Row | Ki | Compound
17 | < 50 nM | CC1=C(C(=O)N2COc3ccc(C(F)(F)F)cc3C2)C2(CCN(C(C)C)CC2)OC1=O [Compound 66, 8-isopropyl-3-methyl-4-{[6-(trifluoromethyl)-2H-1,3-benzoxazin-3(4H)-yl]carbonyl}-1-oxa-8-azaspiro[4.5]dec-3-en-2-one]
18 | < 50 nM | CCN1CCC2(CC1)OC(=O)C(C)=C2C(=O)N1CCc2ccc(C(F)(F)F)cc2C1 [Compound 97, 8-ethyl-3-methyl-4-{[7-(trifluoromethyl)-3,4-dihydroisoquinolin-2(1H)-yl]carbonyl}-1-oxa-8-azaspiro[4.5]dec-3-en-2-one]
19 | < 50 nM | CC1=C(C(=O)N2CCc3ccc(C(F)(F)F)cc3C2)C2(CCN(C3CCOCC3)CC2)OC1=O [Compound 26, 3-methyl-8-(tetrahydro-2H-pyran-4-yl)-4-{[7-(trifluoromethyl)-3,4-dihydroisoquinolin-2(1H)-yl]carbony}-1-oxa-8-azaspiro[4.5]dec-3-en-2-one]
20 | < 50 nM | CC1=C(C(=O)N2CCc3ccc(C(F)(F)F)cc3C2)C2(CCN(C(C)C)CC2)OC1=O [Compound 62, 8-isopropyl-3-methyl-4-{[7-(trifluoromethyl)-3,4-dihydroisoquinolin-2 (1H)-yl]carbonyl}-1-oxa-8-azaspiro[4.5]dec-3-en-2-one]
21 | < 50 nM | CC1=C(C(=O)N2CCc3ccc(C(F)(F)F)cc3C2)C2(CCN(C3CCOC3)CC2)OC1=O (stereo not shown) [Compound 34, 3-methyl-8-(tetrahydrofuran-3-yl)-4-{[7-(trifluoromethyl)-3,4-dihydroisoquinolin-2(H)-yl]carbonyl}-1-oxa-8-azaspiro[4.5]dec-3-en-2-one]
22 | < 50 nM | COc1cccc(CCN2CCC3(CC2)OC(=O)C(C)=C3C(=O)N2CCN(c3cccc(C(F)(F)F)c3)CC2)c1 [Compound 8, 8-[2-(3-methoxyphenyl)ethyl]-3-methyl-4-({4-[3-(trifluoromethyl)pheny)]piperazin-1-yl}carbonyl)-1-oxa-8-azaspiro[4.5]dec-3-en-2-one, dihydrochloride salt]
23 | < 50 nM | CC1=C(C(=O)N2CCc3ccc(C(F)(F)F)cc3C2)C2(CCN(CCN3CCOCC3)CC2)OC1=O [Compound 19, 3-methyl-8-(2-morpholin-4-ylethyl)-4-{[7-(trifluoromethyl)-3,4-dihydroisoquinolin-2(1H)-yl]carbonyl}-1-oxa-8-azaspiro[4.5]dec-3-en-2-one]
24 | < 50 nM | CC1=C(C(=O)N2CCc3ccc(C(F)(F)F)cc3C2)C2(CCN(C)CC2)OC1=O [Compound 27, 3,8-dimethyl-4-{[7-(trifluoromethyl)-3,4-dihydroisoquinolin-2(1H)-yl]carbonyl}-1-oxa-8-azaspiro[4.5]dec-3-en-2-one]

These compounds were tested against T1, hCCR2b (assay: Chemotaxis of L1.2-hCCR2b cells towards MCP-1 P8A). Conditions: MCP-1 P8A at EC80, 4-hours incubation.
Type: cell-based
Parameters: expressed in transfected cells; host or cells: L1.2 cells (murine pre-B cell line)
Text: L1.2 cells, a murine pre-LB cellline, were transfected with the human CCR2b receptor for use in the transmigration of L1.2 hCCR2b on the chemotaxis system: ChemotX® provided by Neuroprobes (8µm pore size). Monocyte Chemoattractant Protein-1 (MCP-1) stimulation leads to activate the CCR2 receptor and inititates a cascade of events including chemotaxis. MCP-1 ligand will be replaced by MCP-1 P8A protein with genetic modifications to prevent the oligomerization of the protein. L1.2-hCCR2b are incubated in white RPMI 1640, 5% v/v Heat inactivated FCS, 1% v/v penicillin-streptomycin supplemented with 5 mM Butyrate overnight to enhance receptor expression level at the cell surface. L1.2-hCCR2b cells and compounds in DMSO (1% final) are preincubated 15 min in chemotaxis medium and placed in the Upper Chamber of the chemotaxis system. The MCP-1 P8A initially present at its EC80 (concentration of MCP-1 P8A which allows 80% of cell migration) in the Lower Chamber (with compounds to avoid any compound gradient) diffuses through the pores of the membrane and interacts with the CCR2 receptor of cells present in the upper chamber. The tested compounds can also potentially interact with CCR2 receptor and therefore inhibit the migration of the cells from the Upper Chamber to the Lower Chamber. After a 4-hours incubation time at 37°C, 5% CO2, a quantification of the cells which have migrated is performed using the Cyquant (Invitrogen) and a fluorescent reader as a Fluostar (exc: 485nm; emm: 520 nm). Specific migration is assessed by substracting the basal migration of cells without any stimulation. Chemotaxis data were analyzed using the Genedata Screener® software.

Row | Compound | Ki
25 | CC1=C(C(=O)N2COc3ccc(C(F)(F)F)cc3C2)C2(CCN(C(C)C)CC2)OC1=O [Compound 66, 8-isopropyl-3-methyl-4-{[6-(trifluoromethyl)-2H-1,3-benzoxazin-3(4H)-yl]carbonyl}-1-oxa-8-azaspiro[4.5]dec-3-en-2-one] | < 50 nM
26 | CCN1CCC2(CC1)OC(=O)C(C)=C2C(=O)N1CCc2ccc(C(F)(F)F)cc2C1 [Compound 97, 8-ethyl-3-methyl-4-{[7-(trifluoromethyl)-3,4-dihydroisoquinolin-2(1H)-yl]carbonyl}-1-oxa-8-azaspiro[4.5]dec-3-en-2-one] | < 50 nM
27 | CC1=C(C(=O)N2CCc3ccc(C(F)(F)F)cc3C2)C2(CCN(C3CCOCC3)CC2)OC1=O [Compound 26, 3-methyl-8-(tetrahydro-2H-pyran-4-yl)-4-{[7-(trifluoromethyl)-3,4-dihydroisoquinolin-2(1H)-yl]carbony}-1-oxa-8-azaspiro[4.5]dec-3-en-2-one] | < 50 nM
28 | CC1=C(C(=O)N2CCc3ccc(C(F)(F)F)cc3C2)C2(CCN(C(C)C)CC2)OC1=O [Compound 62, 8-isopropyl-3-methyl-4-{[7-(trifluoromethyl)-3,4-dihydroisoquinolin-2 (1H)-yl]carbonyl}-1-oxa-8-azaspiro[4.5]dec-3-en-2-one] | < 50 nM
